Here are results for nine compounds from patent US20250206761A1, “HALOINDOLE MACROCYCLIC COMPOUNDS FOR THE TREATMENT OF CANCER” (Hoffmann-La Roche Inc., priority 2022, published 2025).

Bounds are passed on as bounds.

In assay [1] the test system is NCI-H358 (ATCC-CRL5807) cells. The assay is described as follows: Cell viability assay, G12C (NCI-H358). Format: cell-based, human. Conditions: Homo sapiens; KRAS cell viability, NCI-H358, 72 hrs, Cell Counting Kit-8. An outline of the steps: (§1)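 72-hr compound treatment, 0.5% DMSO final; NCI-H358 seeded 5,000 cells/well, AGS and SW620 2,000 cells/well. Endpoint: CCK-8, 2-hr development, OD450 minus OD650.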
In general terms: Formazan colour is commonly taken as a measure of viable cells.

The test system of assay [2] is AGS (ATCC-CRL-1739) cells. The assay can be described thus: Cell viability assay, G12D (AGS). The class given is cell-based, human. As to conditions: Homo sapiens, KRAS cell viability, 72 hrs, Cell Counting Kit-8. The procedure, abridged:
as §1

The test system of another assay is SW620 (ATCC-CCL-227). The assay is described as follows: Cell viability assay, G12V (SW620). The class given is cell-based, human. As to conditions: Homo sapiens, SW-620; KRAS cell viability, SW620, 72 hrs, Cell Counting Kit-8. An outline of the steps:
as §1

The next assay has as its target KRAS G12C-BRAF complex (Homo sapiens (Human), UniProt P01116+P62937, G12C). The assay is described as follows: KRAS G12C-BRAF NanoBit assay. The class given is cell-based. Conditions: HEK293 cells, 3 hours of incubation. The procedure, abridged:
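Stable HEK293 pool co-expressing SmBit-KRAS G12C and BRAF RBD-LgBit; 10,000 cells/well incubated 3 h with compound, 16-point 3-fold dilution from 30 μM final. Live-cell Nano-Glo substrate added, luminescence read at 20 min; disruption seen as luminescence decrease vs DMSO.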

Chain of KRAS G12C-BRAF complex (P01116-2 other isoform, or with tags, fused parts or gaps G12C): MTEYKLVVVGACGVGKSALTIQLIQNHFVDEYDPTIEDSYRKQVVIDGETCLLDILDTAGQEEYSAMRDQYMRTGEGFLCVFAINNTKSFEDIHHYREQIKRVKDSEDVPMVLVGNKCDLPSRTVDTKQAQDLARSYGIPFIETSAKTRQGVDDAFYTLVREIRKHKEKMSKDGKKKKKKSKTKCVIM
Chain of KRAS G12C-BRAF complex (P62937 whole entry): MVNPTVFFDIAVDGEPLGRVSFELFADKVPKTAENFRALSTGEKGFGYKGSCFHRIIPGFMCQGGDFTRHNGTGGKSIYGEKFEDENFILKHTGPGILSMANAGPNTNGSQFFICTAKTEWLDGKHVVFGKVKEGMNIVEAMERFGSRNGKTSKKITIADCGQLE

One may read the IC50 as the midpoint of a concentration-inhibition curve. A high value points to weaker potency. For `CO[C@@H](C)c1ncc(N2CCN(C)CC2)cc1-c1c2c3cc(c(F)cc3n1CC(F)(F)F)-c1cc(O)cc(c1)C[C@H](NC(=O)[C@H](C(C)C)N(C)C(=O)[C@H]1CCN(C(=O)[C@H](F)Cl)C1)C(=O)N1CCC[C@H](N1)C(=O)OCC(C)(C)C2` (atropisomer, axis not shown; (M)) [Example 8, (3S)-1-[(2R)-2-chloro-2-fluoro-acetyl]-N-[(1S)-1-[[(8S,14S)-25-fluoro-4-hydroxy-(21M)-21-[2-[(1S)-1-methoxyethyl]-5-(4-methylpiperazin-1-yl)-3-pyridyl]-18,18-dimethyl-9,15-dioxo-22-(2,2,2-trifluoroethyl)-16-oxa-10,22,28-triazapentacyclo[18.5.2.1^2,6.1^10,14.0^23,27]nonacosa-1(26),2,4,6(29),20,23(27),24-heptaen-8-yl]carbamoyl]-2-methyl-propyl]-N-methyl-pyrrolidine-3-carboxamide], the IC50 was determined as 3 nM in assay [1], 1560 nM in assay [2], 175 nM in the assay on SW620 (ATCC-CCL-227) and 43 nM on KRAS G12C-BRAF complex.

Turning to `CO[C@@H](C)c1ncc(N2CCN(C)CC2)cc1-c1c2c3cc(c(F)cc3n1CC(F)(F)F)-c1csc(n1)C[C@H](NC(=O)[C@H](C(C)C)N1CCC[C@]3(CCN(C(=O)[C@H](F)Cl)C3)C1=O)C(=O)N1CCC[C@H](N1)C(=O)OCC(C)(C)C2` (single isomer, unassigned) [Example 18], the IC50 in assay [1] stood at 1 nM; in assay [2], 3700 nM; in the assay with SW620 (ATCC-CCL-227), 19 nM; against KRAS G12C-BRAF complex, 12 nM.

Consider `CCn1c(-c2cc(N3CCOCC3)cnc2[C@H](C)OC)c2c3cc(c(F)cc31)-c1csc(n1)C[C@H](NC(=O)[C@H](C(C)C)N(C)C(=O)C1(F)CCN(C(=O)[C@H](F)Cl)CC1)C(=O)N1CCC[C@H](N1)C(=O)OCC(C)(C)C2` (atropisomer, axis not shown; (M)) [Example 54, 1-[(2R)-2-chloro-2-fluoro-acetyl]-N-[(1S)-1-[[(7S,13S)-21-ethyl-24-fluoro-(20M)-20-[2-[(1S)-1-methoxyethyl]-5-morpholino-3-pyridyl]-17,17-dimethyl-8,14-dioxo-15-oxa-4-thia-9,21,27,28-tetrazapentacyclo[17.5.2.1^2,5.1^9,13.0^22,26]octacosa-1(25),2,5(28),19,22(26),23-hexaen-7-yl]carbamoyl]-2-methyl-propyl]-4-fluoro-N-methyl-piperidine-4-carboxamide], for which the IC50 in assay [1] was below 1 nM; in assay [2] it was 72 nM; with SW620 (ATCC-CCL-227), 13 nM; at KRAS G12C-BRAF complex, 3 nM.

`CCn1c(-c2cc(N3CCN(CC(F)(F)F)CC3)cnc2[C@H](C)OC)c2c3cc(c(F)cc31)-c1csc(n1)C[C@H](NC(=O)[C@H](C(C)C)N(C)C(=O)C1(F)CCN(C(=O)[C@H](F)Cl)CC1)C(=O)N1CCC[C@H](N1)C(=O)OCC(C)(C)C2` (atropisomer, axis not shown; (M)) [Example 49, 1-[(2R)-2-chloro-2-fluoro-acetyl]-N-[(1S)-1-[[(7S,13S)-21-ethyl-24-fluoro-(20M)-20-[2-[(1S)-1-methoxyethyl]-5-[4-(2,2,2-trifluoroethyl)piperazin-1-yl]-3-pyridyl]-17,17-dimethyl-8,14-dioxo-15-oxa-4-thia-9,21,27,28-tetrazapentacyclo[17.5.2.1^2,5.1^9,13.0^22,26]octacosa-1(25),2,5(28),19,22(26),23-hexaen-7-yl]carbamoyl]-2-methyl-propyl]-4-fluoro-N-methyl-piperidine-4-carboxamide]: the IC50 was below 1 nM in assay [1], 73 nM in assay [2], 42 nM with SW620 (ATCC-CCL-227) and 8 nM at KRAS G12C-BRAF complex.

Regarding `CCn1c(-c2cc(N3CCOCC3)cnc2[C@H](C)OC)c2c3cc(c(F)cc31)-c1csc(n1)C[C@H](NC(=O)[C@H](C(C)C)N1CC[C@@]3(CCN(C(=O)[C@H](F)Cl)C3)C1=O)C(=O)N1CCC[C@H](N1)C(=O)OCC(C)(C)C2` (atropisomer, axis not shown; (M)) [Example 53, (2S)-2-[(5R)-7-[(2R)-2-chloro-2-fluoro-acetyl]-1-oxo-2,7-diazaspiro[4.4]nonan-2-yl]-N-[(7S,13S)-21-ethyl-24-fluoro-(20M)-20-[2-[(1S)-1-methoxyethyl]-5-morpholino-3-pyridyl]-17,17-dimethyl-8,14-dioxo-15-oxa-4-thia-9,21,27,28-tetrazapentacyclo[17.5.2.1^2,5.1^9,13.0^22,26]octacosa-1(25),2,5(28),19,22(26),23-hexaen-7-yl]-3-methyl-butanamide], the IC50 in assay [1] is below 1 nM; in assay [2], 1320 nM; in the assay with SW620 (ATCC-CCL-227), 932 nM; against KRAS G12C-BRAF complex, 17 nM.

As to `CO[C@@H](C)c1ncc(N2CCN(C)CC2)cc1-c1c2c3cc(c(F)cc3n1CC(F)(F)F)-c1csc(n1)C[C@H](NC(=O)[C@H](C(C)C)N(C)C(=O)C1(F)CCN(C(=O)[C@H](F)Cl)CC1)C(=O)N1CCC[C@H](N1)C(=O)OCC(C)(C)C2` (atropisomer, axis not shown; (M)) [Example 10, 1-[(2R)-2-chloro-2-fluoro-acetyl]-4-fluoro-N-[(1S)-1-[[(7S,13S)-24-fluoro-(20M)-20-[2-[(1S)-1-methoxyethyl]-5-(4-methylpiperazin-1-yl)-3-pyridyl]-17,17-dimethyl-8,14-dioxo-21-(2,2,2-trifluoroethyl)-15-oxa-4-thia-9,21,27,28-tetrazapentacyclo[17.5.2.1^2,5.1^9,13.0^22,26]octacosa-1(25),2,5(28),19,22(26),23-hexaen-7-yl]carbamoyl]-2-methyl-propyl]-N-methyl-piperidine-4-carboxamide], the IC50 in assay [1] is below 1 nM; in assay [2], 105 nM; in the assay with SW620 (ATCC-CCL-227), 8 nM; on KRAS G12C-BRAF complex, 4 nM.

With `CCn1c(-c2cc(N3CCOCC3)cnc2[C@H](C)OC)c2c3cc(c(F)cc31)-c1csc(n1)C[C@H](NC(=O)[C@H](C(C)C)N1CCC3(CN(C(=O)[C@H](F)Cl)C3)C1=O)C(=O)N1CCC[C@H](N1)C(=O)OCC(C)(C)C2` (atropisomer, axis not shown; (M)) [Example 52, (2S)-2-[2-[(2R)-2-chloro-2-fluoro-acetyl]-5-oxo-2,6-diazaspiro[3.4]octan-6-yl]-N-[(7S,13S)-21-ethyl-24-fluoro-(20M)-20-[2-[(1S)-1-methoxyethyl]-5-morpholino-3-pyridyl]-17,17-dimethyl-8,14-dioxo-15-oxa-4-thia-9,21,27,28-tetrazapentacyclo[17.5.2.1^2,5.1^9,13.0^22,26]octacosa-1(25),2,5(28),19,22(26),23-hexaen-7-yl]-3-methyl-butanamide], the IC50 was below 1 nM in assay [1], 4720 nM in assay [2], 196 nM with SW620 (ATCC-CCL-227) and 70 nM at KRAS G12C-BRAF complex.

As for `CO[C@@H](C)c1ncc(N2CCN(C)CC2)cc1-c1c2c3cc(c(F)cc3n1CC(F)(F)F)-c1csc(n1)C[C@H](NC(=O)[C@H](C(C)C)N1CCCC3(CN(C(=O)[C@H](F)Cl)C3)C1=O)C(=O)N1CCC[C@H](N1)C(=O)OCC(C)(C)C2` (atropisomer, axis not shown; (M)) [Example 11, (2S)-2-[2-[(2R)-2-chloro-2-fluoro-acetyl]-5-oxo-2,6-diazaspiro[3.5]nonan-6-yl]-N-[(7S,13S)-24-fluoro-(20M)-20-[2-[(1S)-1-methoxyethyl]-5-(4-methylpiperazin-1-yl)-3-pyridyl]-17,17-dimethyl-8,14-dioxo-21-(2,2,2-trifluoroethyl)-15-oxa-4-thia-9,21,27,28-tetrazapentacyclo[17.5.2.1^2,5.1^9,13.0^22,26]octacosa-1(25),2,5(28),19,22(26),23-hexaen-7-yl]-3-methyl-butanamide], the IC50 was below 1 nM in assay [1], 1880 nM in assay [2], 29 nM in the assay on SW620 (ATCC-CCL-227) and 5 nM against KRAS G12C-BRAF complex.

With `CCn1c(-c2cc(N3CCOCC3)cnc2[C@H](C)OC)c2c3cc(c(F)cc31)-c1csc(n1)C[C@H](NC(=O)[C@H](C(C)C)N1CC[C@]3(CCN(C(=O)[C@H](F)Cl)C3)C1=O)C(=O)N1CCC[C@H](N1)C(=O)OCC(C)(C)C2` (atropisomer, axis not shown; (M)) [Example 51, (2S)-2-[(5S)-7-[(2R)-2-chloro-2-fluoro-acetyl]-1-oxo-2,7-diazaspiro[4.4]nonan-2-yl]-N-[(7S,13S)-21-ethyl-24-fluoro-(20M)-20-[2-[(1S)-1-methoxyethyl]-5-morpholino-3-pyridyl]-17,17-dimethyl-8,14-dioxo-15-oxa-4-thia-9,21,27,28-tetrazapentacyclo[17.5.2.1^2,5.1^9,13.0^22,26]octacosa-1(25),2,5(28),19,22(26),23-hexaen-7-yl]-3-methyl-butanamide], the IC50 is below 1 nM in assay [1], 2500 nM in assay [2], 52 nM in the assay on SW620 (ATCC-CCL-227) and 34 nM on KRAS G12C-BRAF complex.
